Laboratory results from article PMC5698418 (Nature Communications, 2017).

Tested on: AMPAR currents in primary cortical neurons
Assay: Single-cell electrophysiology of AMPA-mediated mEPSCs
Type: cell-based, mouse
Description: Primary cortical neurons cultured on glass coverslips were recorded at DIV15 in voltage clamp mode. The external solution was kept at 25 °C and contained 120 mM NaCl, 2 mM KCl, 1 mM MgCl2, 1.5 mM CaCl2, 10 mM 4-(2-hydroxyethyl)-1-piperazineethane-sulfonic acid (HEPES) and 15 mM glucose. […]. Patch recording pipettes (3–6 MΩ) were filled with an internal solution (pH 7.2). The internal solution contained 120 mM K-gluconate, 6 mM NaCl, 1 mM MgCl2, 10 mM HEPES, and 0.2 mM ethylene glycol tetraacetic acid. Data were acquired using an HEKA EPC-10 patch-clamp amplifier interfaced with PatchMaster software and analyzed using FitMaster software (HEKA Elektronik, Holliston, MA) and MiniAnalysis (Synaptosoft, Fort Lee, NJ). Miniature EPSCs were recorded for a minimum of 2 min at a holding potential of −80 mV. Analysis of synaptic event data was performed using MiniAnalysis software with event detection threshold set at maximum root mean squared noise level (5 pA). Recordings of synaptic events were assessed for frequency (Hz) and mean amplitude (pA).

For O=C(Nc1cccc(Br)c1)c1cccc(S(=O)(=O)N2CCCCCC2)c1 [AK-7], the mEPSC amplitude (AK-7 and BDNF 6 h vs BDNF alone, DIV15) was “significant decrease in the amplitude of mEPSCs” and the mEPSC frequency (untreated, BDNF alone, AK-7 plus BDNF) was “all similar”.
